PMC12355328 (ACS Omega, 2025)
In brackets after ≈: the same amount, converted by molar mass. Residues, ends and D or L forms follow the SMILES beside them.

Columns and labels:
[1] = Circular dichroism spectroscopy; assay type: physicochemical; settings: 50 μM, 100 mM NaF, 10 mM KH2PO4, pH 7.5; averaged of three repeats, 298 K
[2] = Dye-leakage assay, POPE/POPG; settings: 100 μM POPE/POPG LUV; 298 K
[3] = Dye-leakage assay, POPG/TOCL; settings: 100 μM POPG/TOCL LUV; 298 K
E. coli ATCC25922 = assay: MIC assay, ciprofloxacin-sensitive E. coli; assay type: cell-based, Escherichia coli; settings: MHB, 6 h, OD600, concentration at which growth surpassed 10%
E. coli BAA 3051 = assay: MIC assay, ciprofloxacin-resistant E. coli; assay type: cell-based, Escherichia coli; settings: E. coli BAA 3051 (ciprofloxacin-resistant); MHB, 6 h, OD600; concentration at which growth surpassed 10%
DnaK = DnaK (Escherichia coli, UniProt P0A6Y8); assay: DnaK binding assay
DNA gyrase = DNA gyrase (Escherichia coli, UniProt P0AES4+P0AES6); assay: DNA gyrase inhibition; assay type: biochemical
Sequence of DNA gyrase (P0AES4 whole entry, one chain of several): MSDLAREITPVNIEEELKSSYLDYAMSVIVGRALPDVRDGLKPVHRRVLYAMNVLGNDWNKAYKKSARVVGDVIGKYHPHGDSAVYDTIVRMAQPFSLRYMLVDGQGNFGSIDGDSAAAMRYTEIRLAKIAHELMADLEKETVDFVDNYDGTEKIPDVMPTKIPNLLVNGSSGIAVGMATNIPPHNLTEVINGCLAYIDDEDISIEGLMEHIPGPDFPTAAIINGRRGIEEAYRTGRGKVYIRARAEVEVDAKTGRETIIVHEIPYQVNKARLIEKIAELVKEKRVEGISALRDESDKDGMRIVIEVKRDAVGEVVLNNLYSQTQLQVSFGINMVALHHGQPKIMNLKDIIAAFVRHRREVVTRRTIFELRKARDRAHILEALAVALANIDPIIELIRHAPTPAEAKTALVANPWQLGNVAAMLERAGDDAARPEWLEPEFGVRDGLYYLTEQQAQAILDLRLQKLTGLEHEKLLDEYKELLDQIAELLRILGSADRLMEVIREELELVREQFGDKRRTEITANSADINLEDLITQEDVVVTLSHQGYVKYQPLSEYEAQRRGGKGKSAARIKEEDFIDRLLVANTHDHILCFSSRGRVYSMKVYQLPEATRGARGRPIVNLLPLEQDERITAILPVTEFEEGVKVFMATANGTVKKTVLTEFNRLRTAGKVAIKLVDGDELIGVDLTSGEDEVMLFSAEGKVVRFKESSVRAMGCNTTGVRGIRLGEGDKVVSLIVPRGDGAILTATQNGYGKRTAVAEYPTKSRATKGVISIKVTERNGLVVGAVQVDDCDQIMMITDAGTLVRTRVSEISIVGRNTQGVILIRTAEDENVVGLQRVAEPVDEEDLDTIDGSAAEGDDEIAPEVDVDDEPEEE

Sequence of DnaK (P0A6Y8 whole entry): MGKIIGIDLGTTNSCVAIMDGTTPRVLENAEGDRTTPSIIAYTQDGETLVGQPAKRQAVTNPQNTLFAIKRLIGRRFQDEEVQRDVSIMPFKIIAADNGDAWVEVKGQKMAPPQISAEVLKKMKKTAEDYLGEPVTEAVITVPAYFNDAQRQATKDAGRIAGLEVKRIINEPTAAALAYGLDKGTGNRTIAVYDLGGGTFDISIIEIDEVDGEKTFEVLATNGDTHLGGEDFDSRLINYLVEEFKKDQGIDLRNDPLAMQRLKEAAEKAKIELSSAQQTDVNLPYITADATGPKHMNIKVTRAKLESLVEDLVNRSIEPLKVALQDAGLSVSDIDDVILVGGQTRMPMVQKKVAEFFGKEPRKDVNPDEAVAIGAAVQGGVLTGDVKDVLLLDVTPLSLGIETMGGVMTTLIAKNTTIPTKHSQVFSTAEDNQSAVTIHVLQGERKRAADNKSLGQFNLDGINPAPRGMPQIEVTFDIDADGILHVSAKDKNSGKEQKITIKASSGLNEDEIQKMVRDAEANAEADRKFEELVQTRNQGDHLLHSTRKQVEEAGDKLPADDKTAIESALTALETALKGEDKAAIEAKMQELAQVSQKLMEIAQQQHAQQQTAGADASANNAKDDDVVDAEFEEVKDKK

Structure (SMILES)	CD: conformation / aggregation in buffer (in words) [1]	leakage profile (in words) [2]	leakage profile (in words) [3]	MIC (E. coli ATCC25922)	MIC (E. coli BAA 3051)	IC50 (DnaK)	Ki (DnaK)	IC50 (DNA gyrase)
O=C(O)c1cn(C2CC2)c2cc(N3CCNCC3)c(F)cc2c1=O [ciprofloxacin]	not optically active in CD	showed a similar trend to POPC	showed a similar trend as in POPC	–	–	–	–	–
CC[C@H](C)[C@H](NC(=O)[C@H](CCCNC(=N)N)NC(=O)[C@H](CCCNC(=N)N)NC(=O)[C@@H]1CCCN1C(=O)[C@@H]1CCCN1C(=O)[C@H](CCCNC(=N)N)NC(=O)[C@@H]1CCCN1C(=O)[C@H](CCCNC(=N)N)NC(=O)[C@@H]1CCCN1C(=O)[C@H](CC(C)C)NC(=O)[C@H](Cc1ccc(O)cc1)NC(=O)[C@@H]1CCCN1C(=O)[C@@H]1CCCN1C(=O)[C@H](CCCCN)NC(=O)[C@H](CC(=O)O)NC(=O)[C@@H](N)C(C)C)C(=O)N[C@@H](Cc1ccc(O)cc1)C(=O)N[C@@H](CC(N)=O)C(=O)N[C@@H](CCCNC(=N)N)C(N)=O [oncocin] (H-VDKPPYLPRPRPPRRIYNR-NH2)	–	–	–	1 µM (≈ 2.39 µg/mL)	1 µM (≈ 2.39 µg/mL)	1540 nM	390 nM	> 10 µM
